The record followed here is patent publication US6812377B2, “Genetic engineering of syringyl-enriched lignin in plants” (Board of Control of Michigan Technological University, priority 2000, dated 2004).

In assay [1] the target is T1, PtCAD (recombinant coniferyl alcohol dehydrogenase, GenBank AF217957, C-terminal His tag, expressed in E. coli BL21(DE3)) (Populus tremuloides, UniProt Q9M632).
T1 sequence (Q9M632 1-357): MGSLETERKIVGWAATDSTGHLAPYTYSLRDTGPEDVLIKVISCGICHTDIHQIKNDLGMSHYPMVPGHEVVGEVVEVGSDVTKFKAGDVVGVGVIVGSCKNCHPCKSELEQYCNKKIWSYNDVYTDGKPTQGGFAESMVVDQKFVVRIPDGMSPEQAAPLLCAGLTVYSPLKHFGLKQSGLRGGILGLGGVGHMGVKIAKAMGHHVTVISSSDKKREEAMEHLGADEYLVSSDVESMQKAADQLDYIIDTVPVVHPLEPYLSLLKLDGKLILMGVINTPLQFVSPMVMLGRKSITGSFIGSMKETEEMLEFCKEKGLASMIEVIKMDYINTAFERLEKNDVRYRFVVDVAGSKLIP
Description: Inhibition kinetics of PtCAD: PtCAD-mediated reduction of sinapaldehyde in the presence of coniferaldehyde, HPLC-UV/MS (FIG. 6). In kind it is biochemical, Populus tremuloides (quaking aspen). The note with it: coniferaldehyde (1 to 5 μM) as inhibitor of PtCAD-mediated reduction of sinapaldehyde (1 to 200 μM); 500 μM NADPH; 1.2 μg purified recombinant PtCAD; pH 8.0; 4 min; 30° C.; read-out: apparent inhibition constant (Ki). The text has this:
FIG. 6 illustrates inhibition kinetics of PtCAD and PtSAD;
A guaiacyl pathway gene encoding coniferyl alcohol dehydrogenase (CAD, FIG. 1) from Populus tremuloides (GenBank #AF217957) was first cloned. This cDNA was designated as PtCAD (GenBank #AF217957). E. coli-expressed recombinant PtCAD protein was characterized for its catalytic activity with coniferaldehyde and sinapaldehyde. Because monolignol biosynthetic pathway intermediates are present together in lignifying tissues (Osakabe et al., 1999; Li et al. 2000), the PtCAD enzyme activity with a mixture of coniferaldehyde and sinapaldehyde was assayed. As shown in FIG. 5 (a) and (c), the reaction mixture was separated by HPLC after the enzyme reaction. […] Thus, PtCAD has a specific catalytic reaction function with coniferaldehyde for the biosynthesis of guaiacyl monolignol, coniferyl alcohol (FIG. 1). […]
For normal and inhibition kinetic analyses, the reaction time was 4 min and pH was 8.0 for PtCAD (1.2 μg of purified recombinant protein) and 7.0 for PtSAD (0.1 μg). […] All reactions were terminated by the addition of 10 μL of 6 N HCI (to bring the pH to 2) and 500 ng of internal standard o-coumaric acid and analyzed by HPLC-UV/MS. […]

The target in assay [2] is recombinant PtSAD protein (Populus tremuloides, UniProt Q94G59). As to the kind of experiment: Kinetic properties of the recombinant PtSAD protein (HPLC-UV/MS). The note with it: substrate of PtSAD; relative, sinapaldehyde = 100. In kind it is biochemical. The procedure: (§1) To characterize the enzyme pH optima, the substrate and recombinant PtCAD or PtSAD protein concentrations described above were used in sodium phosphate buffers, pH 5 to 8.5. […] For inhibition kinetics, the PtCAD-mediated reduction of sinapaldehyde (1 to 200 μM) was assayed in the presence of 1 to 5 μM coniferaldehyde, and the PtSAD-catalyzed reduction of coniferaldehyde (1 to 200 μM) was assayed in the presence of 1 to 5 μM sinapaldehyde. All reactions were terminated by the addition of 10 μL of 6 N HCI (to bring the pH to 2) and 500 ng of internal standard o-coumaric acid and analyzed by HPLC-UV/MS. An aliquot of 100 μL of reaction mixture was injected directly onto a Supelcosil LC-ABZ column (15 cm×4.6 mm×5 μm; Supelco, Bellefonte, Pa.) with automatic sample injection and separated isocratically with a Hewlett-Packard (HP) 1100 liquid chromatography system at 40° C. and a flow rate of 0.25 mL/min. […] The reaction products were identified and confirmed by comparing the ion fragmentation patterns of the product and the authentic standard in MS scanning mode at 70 V. The product quantity and Km, Vmax, kcat, and apparent inhibition constant (Ki) values (means±SE) were determined as described (Osakabe et al., 1999; Li et al., 2000). The results of the inhibition kinetics for both the CAD enzyme (i.e. Table 2) and the SAD enzyme (i.e., Table 3) using a variety of substrates are illustrated below.

The target of assay [3] is recombinant PtCAD protein (Populus tremuloides, UniProt Q9M632). As to the kind of experiment: Kinetic properties of the recombinant PtCAD protein (HPLC-UV/MS). In kind it is biochemical. Particulars: substrate of PtCAD; relative, coniferaldehyde = 100. How it is done:
as §1

Sequence of recombinant PtSAD protein (Q94G59 entry or part of it): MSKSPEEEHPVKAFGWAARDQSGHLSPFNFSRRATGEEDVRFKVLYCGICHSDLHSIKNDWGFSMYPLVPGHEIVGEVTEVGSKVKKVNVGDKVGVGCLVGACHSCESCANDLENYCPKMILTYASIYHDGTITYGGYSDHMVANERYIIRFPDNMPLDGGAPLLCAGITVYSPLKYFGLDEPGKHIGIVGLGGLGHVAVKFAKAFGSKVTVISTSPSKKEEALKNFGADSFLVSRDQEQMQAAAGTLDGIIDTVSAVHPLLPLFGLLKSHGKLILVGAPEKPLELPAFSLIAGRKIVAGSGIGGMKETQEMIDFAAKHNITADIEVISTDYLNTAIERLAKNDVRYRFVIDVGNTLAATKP

For the compound `COc1cc(/C=C/C=O)ccc1O` [Coniferaldehyde], in assay [1], the Ki is 1.7 µM. Moreover, the results for the Vmax/Km in assay [2] and in assay [3] were 26.6% and 100%, respectively.
